Data from patent publication US20040127492A1 (Pharmacia Corporation, priority 2002, published 2004).
Counter-ions that a name gives are not always drawn.

These compounds were tested against MAPKAPK2 (MK-2) (Homo sapiens, UniProt P49137) (assay: Determination of MK-2 IC50 (HSP-peptide phosphorylation, anion exchange resin capture assay)). Details: MK-2 Avg. IC50.
MAPKAPK2 (MK-2), sequence (P49137 whole entry, species assumed): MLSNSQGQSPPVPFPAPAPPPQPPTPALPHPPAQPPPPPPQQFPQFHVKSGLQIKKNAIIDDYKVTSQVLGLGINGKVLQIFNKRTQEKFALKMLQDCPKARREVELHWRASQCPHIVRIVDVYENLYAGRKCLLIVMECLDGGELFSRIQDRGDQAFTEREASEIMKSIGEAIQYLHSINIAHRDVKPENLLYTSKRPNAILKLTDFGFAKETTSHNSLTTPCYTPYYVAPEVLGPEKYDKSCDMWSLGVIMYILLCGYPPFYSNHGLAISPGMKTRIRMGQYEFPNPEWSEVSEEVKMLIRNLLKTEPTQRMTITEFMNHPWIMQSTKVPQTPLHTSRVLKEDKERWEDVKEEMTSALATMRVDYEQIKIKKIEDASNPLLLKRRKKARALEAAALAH
Type: biochemical
Protocol: Determination of MK-2 IC50:
Recombinant MAPKAPK2 was phosphorylated at a concentration of 42-78 μM by incubation with 0.23 μM of active p38α in 50 mM HEPES, 0.1 mM EDTA, 10 mM magnesium acetate, and 0.25 mM ATP, pH 7.5 for one hour at 30° C.
The phosphorylation of HSP-peptide ([…]) by MAPKAPK2 was measured using an anion exchange resin capture assay method. The reaction was carried out in 50 mM β-glycerolphosphate, 0.04% BSA, 10 mM magnesium acetate, 2% DMSO and 0.8 mM dithiotheritol, pH 7.5 in the presence of the HSP-peptide with 0.2 μCi [γ^33P]ATP and 0.03 mM ATP. The reaction was initiated by the addition of 15 nM MAPKAPK2 and was allowed to incubate at 30° C. for 30 min. The reaction was terminated and [γ^33P]ATP was removed from solution by the addition of 150 μl of AG 1×8 ion exchange resin in 900 mM sodium formate pH 3.0. A 50 μl aliquot of head volume was removed from the quenched reaction mixture and added to a 96-well plate, 150 μl of Microscint-40 (Packard) was added and the amount of phosphorylated-peptide was determined. Allow the Microscint to sit in the plates for 60 minutes prior to counting.
Compounds are evaluated as potential inhibitors of the MK-2 kinase by measuring their effects on MK-2 phosphorylation of the peptide substrate. Compounds may be screened initially at two concentrations prior to determination of IC50 values. Screening results are expressed as percent inhibition at the concentrations of compound tested. For IC50 value determinations, Compounds are tested at six concentrations in ten-fold serial dilutions with each concentration tested in triplicate. Results are expressed as IC50 values in micromolar. The assay is performed at a final concentration of 2% DMSO.
`ON=C1CCCn2nc3c(c21)CCc1cnccc1-3` [Example 263] gave an IC50 of 131 µM.

Same assay, conditions: read-out: MK-2 Avg. IC50
`O=C1NCCn2nc3c(c21)CCc1cnc(-c2ccc(OCc4ccccc4)cc2)cc1-3` [Example 205] showed an IC50 of 36.4 µM. With `O=C(O)c1c2c(nn1CC(O)CNCc1cccs1)-c1ccncc1CC2` (stereo not drawn) [Example 206] the IC50 was 36.8 µM. With `O=C(O)c1c2c(nn1CCCNc1cccnc1)-c1ccncc1CC2` [Example 208] the IC50 was 39.4 µM. `CCOC(=O)NC(=O)NCCCn1nc2c(c1C(=O)O)CCc1cnccc1-2` [Example 209] gave an IC50 of 42.5 µM. Compound `NC(=O)C1CCN(CCCn2nc3c(c2C(=O)O)CCc2cnccc2-3)CC1` [Example 210] has an IC50 of 47.9 µM. `NC(=O)CCCn1nc2c(c1C(=O)O)CCc1cnccc1-2` [Example 211] showed an IC50 of 50.1 µM. With `c1ccc2ncc(-c3cc4c(cn3)CCc3c[nH]nc3-4)cc2c1` [Example 212] the IC50 was 52 µM. In the case of `CCCCNC(=O)NCCCn1nc2c(c1C(=O)O)CCc1cnccc1-2` [Example 213], the IC50 is reported as 53.5 µM. `c1coc(-c2[nH]nc3c2CCc2cnccc2-3)c1` [Example 214] showed an IC50 of 53.7 µM. `O=C1NCCn2nc3c(c21)CCc1c-3ccnc1Nc1ccccc1` [Example 215] was tested, and the IC50 was 53.8 µM. `NCCCN1CCn2nc3c(c2C1=O)CCc1cnccc1-3` [Example 216] showed an IC50 of 54.8 µM. With `C=CCNC(=O)NCCCn1nc2c(c1C(=O)O)CCc1cnccc1-2` [Example 217] the IC50 was 55.3 µM. `O=C(O)c1c2c(nn1CCCNCC(F)(F)F)-c1ccncc1CC2` [Example 218] was tested, and the IC50 was 56.3 µM. `O=C1CCCn2nc3c(c21)CCc1cnccc1-3` [Example 219] was tested, and the IC50 was 59.5 µM. `CN(C)CCNc1cc2c(cn1)CCc1c-2nn2c1C(=O)NCC2` [Example 220] was tested, and the IC50 was 60.7 µM. Compound `CCC(CC)CNCCn1nc2c(c1C(=O)O)CCc1cnccc1-2` [Example 221] has an IC50 of 62.1 µM. `C#Cc1cnc2c(c1)-c1nn(CCN)c(C(=O)OCC)c1CC2` [Example 222] was tested, and the IC50 was 62.5 µM. Compound `O=C1NCCn2nc3c(c21)CCc1cnc(CCc2ccc(Cl)cc2)cc1-3` [Example 223] has an IC50 of 63.2 µM. In the case of `O=C(O)c1[nH]nc2c1CCc1cnccc1-2` [Example 224], the IC50 is reported as 63.4 µM. For `O=C1NCCn2nc3c(c21)CCc1cnc(N2CCNCC2)cc1-3` [Example 225], the IC50 was 64.9 µM. For `O=C(Cc1cccs1)NCCCn1nc2c(c1C(=O)O)CCc1cnccc1-2` [Example 226], the IC50 was 66.1 µM. `O=C(NCCCn1nc2c(c1C(=O)O)CCc1cnccc1-2)c1ccccc1` [Example 227] showed an IC50 of 68 µM. `CN(C)CC(O)Cn1nc2c(c1C(=O)N(C)C)CCc1cnccc1-2` (stereo not drawn) [Example 228] showed an IC50 of 69.3 µM. With `O=C(O)c1c2c(nn1CC=NO)-c1ccncc1CC2` [Example 229] the IC50 was 71 µM. Work on `C=CCn1nc2c(c1C(=O)O)CCc1c[n+]([O-])ccc1-2` [Example 230] yielded an IC50 of 75.4 µM. Compound `Cn1nc2c(c1C(=O)O)CCc1cnccc1-2` [Example 231] has an IC50 of 76.6 µM. `O=S(=O)(Cc1ccc(Cl)cc1)NC1CCCn2nc3c(c21)CCc1cnccc1-3` (stereo not drawn) [Example 232] was tested, and the IC50 was 78.7 µM. Work on `Cc1ccc(S(=O)(=O)NC(=O)NCCCn2nc3c(c2C(=O)O)CCc2cnccc2-3)cc1` [Example 233] yielded an IC50 of 80.6 µM. In the case of `CSc1nccc2c1CCc1c-2nn(CCCN)c1C(=O)O` [Example 234], the IC50 is reported as 83.4 µM. In the case of `O=C(O)c1c2c(nn1CC=NO)-c1ccncc1CC2` [Example 235], the IC50 is reported as 84.3 µM. For `CC1CCCN(c2cc3c(cn2)CCc2c-3nn3c2C(=O)NCC3)C1` (stereo not drawn) [Example 236], the IC50 was 84.4 µM. For `CSc1[nH]nc2c1CCc1cnccc1-2` [Example 237], the IC50 was 85.2 µM. In the case of `c1cc2c(cn1)CCc1c[nH]nc1-2` [Example 238], the IC50 is reported as 86.1 µM. `NCCCn1nc2c(c1C(=O)O)CCc1c-2ccnc1-c1ccccc1` [Example 239] gave an IC50 of 87.6 µM. In the case of `NC(=O)C1CCN(CC(O)Cn2nc3c(c2C(=O)O)CCc2cnccc2-3)CC1` (stereo not drawn) [Example 240], the IC50 is reported as 87.6 µM. Work on `Cc1ccc(C(C)CCN(CCCn2nc3c(c2C(=O)O)CCc2cnccc2-3)CCC(C)c2ccc(C)o2)o1` (stereo not drawn) [Example 241] yielded an IC50 of 87.9 µM. `O=C1NCCCn2nc3c(c21)CCc1cnc(-c2ccc(OCc4ccccc4)cc2)cc1-3` [Example 242] gave an IC50 of 93.4 µM. In the case of `O=C1NCCn2nc3c(c21)CCc1cnc(Cc2ccc(Cl)cc2)cc1-3` [Example 243], the IC50 is reported as 94.2 µM. In the case of `FC(F)c1[nH]nc2c1CCc1cnccc1-2` [Example 244], the IC50 is reported as 96.5 µM. Compound `O=C1NCCn2nc3c(c21)CCc1cnc(-c2cccc4ncccc24)cc1-3` [Example 246] has an IC50 of 98.3 µM. In the case of `NCCCn1nc(-c2nnn[nH]2)c2c1-c1ccncc1CC2` [Example 247], the IC50 is reported as 100 µM. In the case of `CC(C)(C)c1ccc(-c2cc3c(cn2)CCc2c-3nn3c2C(=O)NCC3)cc1` [Example 248], the IC50 is reported as 101 µM. `O=C(O)c1c2c(nn1CCCNc1ccncc1)-c1ccncc1CC2` [Example 249] gave an IC50 of 101 µM. `CN(c1ccccc1)c1cc2c(cn1)CCc1c-2nn2c1C(=O)NCC2` [Example 250] showed an IC50 of 101 µM. Work on `O=C1c2c3c(nn2CCN1CCCc1ccccc1)-c1ccncc1CC3` [Example 251] yielded an IC50 of 102 µM. `CCCn1nc2c(c1C(N)=O)CCc1cnc(-c3cnc4ccccc4c3)cc1-2` [Example 252] was tested, and the IC50 was 103 µM. Work on `O=C(NCCCn1nc2c(c1C(=O)O)CCc1cnccc1-2)c1ccncc1` [Example 253] yielded an IC50 of 109 µM. Work on `CC(C)(C)OC(=O)NCCCn1nc2c(c1C(=O)O)CCc1cnc(Cl)cc1-2` [Example 254] yielded an IC50 of 112 µM. `CCCCOc1ccc(S(=O)(=O)NCCCn2nc3c(c2C(=O)O)CCc2cnccc2-3)cc1` [Example 255] was tested, and the IC50 was 113 µM. `O=C(CCc1ccco1)NCCCn1nc2c(c1C(=O)O)CCc1cnccc1-2` [Example 256] was tested, and the IC50 was 116 µM. For `O=C1NCCn2nc3c(c21)CCc1cnc(-c2ccc(Oc4ccccc4)cc2)cc1-3` [Example 257], the IC50 was 119 µM. For `C=CCn1nc2c(c1C(N)=O)CCc1cnc(-c3cnc4ccccc4c3)cc1-2` [Example 258], the IC50 was 119 µM. Work on `O=C1NCCn2nc3c(c21)CCc1cnc(CCC2CCCCC2)cc1-3` [Example 259] yielded an IC50 of 121 µM. Compound `O=C(O)c1c2c(nn1CC(O)CN1CCOCC1)-c1ccncc1CC2` (stereo not drawn) [Example 260] has an IC50 of 128 µM. Work on `O=C(NCCCn1nc2c(c1C(=O)O)CCc1cnccc1-2)c1ccccn1` [Example 261] yielded an IC50 of 129 µM. `N#Cc1ccc(S(=O)(=O)NCCCn2nc3c(c2C(=O)O)CCc2cnccc2-3)cc1` [Example 262] showed an IC50 of 130 µM. `CCCCCCc1cc2c(cn1)CCc1c-2nn2c1C(=O)NCC2` [Example 264] was tested, and the IC50 was 133 µM. `CNC(=O)c1[nH]nc2c1CCc1cnccc1-2` [Example 265] was tested, and the IC50 was 135 µM. Work on `NC1CCN(CC(O)Cn2nc3c(c2C(=O)O)CCc2cnccc2-3)CC1` (stereo not drawn) [Example 266] yielded an IC50 of 136 µM. In the case of `COc1cccc(S(=O)(=O)NCCCn2nc3c(c2C(=O)O)CCc2cnccc2-3)c1` [Example 267], the IC50 is reported as 141 µM. `CC(C)(C)OC(=O)NC1CCN(CCCn2nc3c(c2C(=O)O)CCc2cnccc2-3)CC1` [Example 269] gave an IC50 of 149 µM. In the case of `CN1CCn2nc3c(c2C1=O)CCc1cnccc1-3` [Example 270], the IC50 is reported as 156 µM. For `COC(=O)c1c2c(nn1CCO)-c1ccncc1CC2` [Example 271, hydrochloride], the IC50 was 161 µM. Compound `O=C(O)c1c2c(nn1CC(O)CN1CCCC1)-c1ccncc1CC2` (stereo not drawn) [Example 272, hydrochloride] has an IC50 of 162 µM. `O=C(O)c1c2c(nn1CC(O)CNCCc1cccs1)-c1ccncc1CC2` (stereo not drawn) [Example 273] showed an IC50 of 163 µM. Compound `Cn1cnc(S(=O)(=O)NCCCn2nc3c(c2C(=O)O)CCc2cnccc2-3)c1` [Example 274] has an IC50 of 164 µM. `COC(=O)c1[nH]nc2c1CCc1cnccc1-2` [Example 275] was tested, and the IC50 was 171 µM. `CC(=O)Nc1ccc(S(=O)(=O)NCCCn2nc3c(c2C(=O)O)CCc2cnccc2-3)cc1` [Example 276] was tested, and the IC50 was 176 µM. In the case of `NCCCn1nc2c(c1CO)CCc1cnccc1-2` [Example 277], the IC50 is reported as 186 µM. For `NCCCNC(=O)c1[nH]nc2c1CCc1cnccc1-2` [Example 278], the IC50 was 189 µM. Work on `O=C(NCCCn1nc2c(c1C(=O)O)CCc1cnccc1-2)c1ccco1` [Example 279] yielded an IC50 of 190 µM. With `O=C1c2c3c(nn2CC2CCCN1C2)-c1ccncc1CC3` (stereo not drawn) [Example 281] the IC50 was 191 µM. `O=C(O)c1c2c(nn1CC(O)CN1CCNCC1)-c1ccncc1CC2` (stereo not drawn) [Example 283] was tested, and the IC50 was 198 µM.

Each compound was assayed against MK-3 (Homo sapiens, UniProt Q16644) (assay: MK-3 inhibition IC50 (similar method to MK-2, with appropriate modifications)). Details: Table 1, phenoxypyrazole MK-2 inhibitors; read-out: MK-3 Avg. IC50.
MK-3, sequence (Q16644 whole entry, species assumed): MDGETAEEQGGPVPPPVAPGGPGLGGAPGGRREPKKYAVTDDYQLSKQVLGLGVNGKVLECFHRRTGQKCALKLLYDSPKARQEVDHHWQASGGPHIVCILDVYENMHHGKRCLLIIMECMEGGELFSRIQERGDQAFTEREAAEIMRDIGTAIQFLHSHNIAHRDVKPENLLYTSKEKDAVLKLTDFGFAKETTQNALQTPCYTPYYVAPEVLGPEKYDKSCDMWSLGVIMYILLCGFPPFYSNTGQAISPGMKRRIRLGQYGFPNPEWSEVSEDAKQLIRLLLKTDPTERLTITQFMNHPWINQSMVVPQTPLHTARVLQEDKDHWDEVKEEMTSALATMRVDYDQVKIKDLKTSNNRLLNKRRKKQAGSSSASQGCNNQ
Type: biochemical
Protocol: In practice, the selectivity of a cyclic pyrazole MK-2 inhibitor varies depending upon the condition under which the test is performed and on the inhibitors being tested. However, for the purposes of this specification, the selectivity of a cyclic pyrazole MK-2 inhibitor inhibitor can be measured as a ratio of the in vitro or in vivo IC50 value for inhibition of MK-3, divided by the IC50 value for inhibition of MK-2 (IC50 MK-3/IC50 MK-2). […] The MK-2 or MK-3 inhibiting activity of any of the compounds described herein can be determined by any one of several methods that are well known to those having skill in the art of enzyme activity testing. […] A similar method, with appropriate modifications, Can be used to measure MK-3 inhibitory activity. In addition, the efficacy of one of the present MK-2 inhibiting compounds in therapeutic applications can be determined by testing for inhibition of TNFα production in cell culture and in animal model assays.
In the case of `COc1cc2c(cc1CCC(F)(F)F)-c1nn(CCCNC(=O)OC(C)(C)C)c(C(=O)O)c1CC2` [Example 54], the IC50 is reported as over 200 µM.
